Consider two compounds from patent US6448274B2, “Fluoroalkoxy-substituted benzamide dichloropyridinyl N-oxide PDE4 inhibitor” (Merck Frosst Canada & Co., priority 2000, dated 2002).

Where two headings read alike, the source gives them in different places.

Data set [1] can be described thus: Plasma and brain concentrations at 60 minutes post-dosing. In kind it is in vivo. The note with it: male, Sprague-Dawley, rat, ip, rats, 3 mg/kg i.p.; for Kp at 60 min: brain and plasma, n=5. On the procedure:
(§1) Compound I of the present invention was compared to Compound II by testing the for effects on the duration of anesthesia induced by the combination of xylazine and ketamine in rats. Male Sprague-Dawley rats were anaesthetised with a combination of xylazine (10 mg/kg) and ketamine (10 mg/kg) administered in a single intramuscular injection in the back hindlimb. Fifteen minutes later, the drug to be tested or its vehicle was injected intraperitoneally (dosing volume=1 ml/kg) and the animals were placed in dorsal recumbence. The compounds were dissolved immediately before use in polyethylene glycol (M.W. 200). The return of the righting reflex (i.e. when the animal no longer remained on its back and turned itself spontaneously to the prone position) was used as an endpoint to determine the duration of anaesthesia.
(§2) At the end of the experiment, at 60 minutes post-dosing, plasma and brain samples were taken for drug concentration determination.
However, the distribution to the brain was very different for each compound.

For data set [2], the system named is duration of anesthesia induced by the combination of xylazine and ketamine in rats. Briefly: Effect on duration of anesthesia induced by xylazine and ketamine. The note with it: 3 mg/kg i.p.; for Duration of anesthesia (min), Compound treated group: n = 5, mean ± S.E.M., return of righting reflex as endpoint; for Effect on duration of anaesthesia (in words): n=5. It is filed as in vivo, Male Sprague-Dawley rats. On the procedure: as §1, §2

The mark [3] stands for this setting: brain, n=5, read-out: Brain concentration.
[4] abbreviates: plasma, n=5, read-out: Plasma concentration.

For the compound `O=C(Nc1c(Cl)c[n+]([O-])cc1Cl)c1ccc(OC(F)F)c(OCC2CC2)c1` [Compound Formula I, N-(3,5-Dichloro-1-oxido-pyridin-4-yl)-4-difluoromethoxy-3-cyclopropylmethoxybenzamide], the Kp at 60 min in data set [1] was 0.0938. In addition, the concentration at 60 min in data set [1] (setting [3]) stood at 410 ± 150 nM. Further, the concentration at 60 min in data set [1] (setting [4]) was 4370 ± 1650 nM. Moreover, in data set [2], the “Inhibition % (of duration of anesthesia vs vehicle treated group)” value was determined as 15.6%; the “Duration of anesthesia (min), Compound treated group” value was found to be 37.40 ± 7.83 min; the “Effect on duration of anaesthesia (in words)” value is listed as “did not significantly modify the duration of anaesthesia”.
Take `O=C(Nc1c(Cl)cncc1Cl)c1ccc(OC(F)F)c(OCC2CC2)c1` [Compound Formula II, N-(3,5-Dichloropyridin-4-yl)-4-difluoromethoxy-3-cyclopropylmethoxybenzamide]: the Kp at 60 min in data set [1] worked out at 0.75. In addition, the concentration at 60 min in data set [1] (setting [3]) was found to be 150 ± 50 nM. The concentration at 60 min in data set [1] (setting [4]) was found to be 200 ± 80 nM. In data set [2], the “Inhibition % (of duration of anesthesia vs vehicle treated group)” value is 54.7%; the “Duration of anesthesia (min), Compound treated group” value is listed as 19.20 ± 4.68 min; the “Effect on duration of anaesthesia (in words)” value is given as “significant reduction in the duration of the anaesthesia”.

What is called Kp is tissue or fluid exposure divided by exposure in the circulation.
